Active and inactive are the calls of the source.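 Rule for the calls: active = GFP ratio to DMSO above 1.5 or below 0.66; inactive = the rest.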
Key:
Test in all cases: expression changes of rapamycin-responsive GFP fusion proteins, S. cerevisiae, GFP-tagged clone panel, flow cytometry (AID 504473);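 note: median GFP fluorescence of the cells measured by high-throughput flow cytometry; test concentration not given here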
YNL142W = details: S. cerevisiae GFP-tagged strains, 3 h
YPL265W = details: S. cerevisiae GFP-tagged strains, 3 h
YIL043C = details: S. cerevisiae GFP-tagged strains, 3 h
YMR307W = details: S. cerevisiae GFP-tagged strains, 3 h
YLR142W = details: S. cerevisiae GFP-tagged strains, 3 h
YER156C = details: S. cerevisiae GFP-tagged strains, 3 h
YOR063W = details: S. cerevisiae GFP-tagged strains, 3 h
YNL015W = details: S. cerevisiae GFP-tagged strains, 3 h
YKL103C = details: S. cerevisiae GFP-tagged strains, 3 h
YML063W = details: S. cerevisiae GFP-tagged strains, 3 h
YJR148W = details: S. cerevisiae GFP-tagged strains, 3 h
YKL086W = details: S. cerevisiae GFP-tagged strains, 3 h
YIL069C = details: S. cerevisiae GFP-tagged strains, 3 h
YCR002C = details: S. cerevisiae GFP-tagged strains, 3 h
YPL131W = details: S. cerevisiae GFP-tagged strains, 3 h
YHR087W = details: S. cerevisiae GFP-tagged strains, 3 h
YML004C = details: S. cerevisiae GFP-tagged strains, 3 h
YBR139W = details: S. cerevisiae GFP-tagged strains, 3 h
YOR371C = details: S. cerevisiae GFP-tagged strains, 3 h
YER081W = details: S. cerevisiae GFP-tagged strains, 3 h
YBL087C = details: S. cerevisiae GFP-tagged strains, 3 h
YOL052C-A = details: S. cerevisiae GFP-tagged strains, 3 h
YIL066C = details: S. cerevisiae GFP-tagged strains, 3 h
YFR031C-A = details: S. cerevisiae GFP-tagged strains, 3 h
YKR039W = details: S. cerevisiae GFP-tagged strains, 3 h
YGL062W = details: S. cerevisiae GFP-tagged strains, 3 h
YOR038C = details: S. cerevisiae GFP-tagged strains, 3 h
YEL063C = details: S. cerevisiae GFP-tagged strains, 3 h
YKL119C = details: S. cerevisiae GFP-tagged strains, 3 h
YCR005C = details: S. cerevisiae GFP-tagged strains, 3 h
YHR203C = details: S. cerevisiae GFP-tagged strains, 3 h
YML026C = details: S. cerevisiae GFP-tagged strains, 3 h
YLR237W = details: S. cerevisiae GFP-tagged strains, 3 h
YNL068C = details: S. cerevisiae GFP-tagged strains, 3 h
YML128C = details: S. cerevisiae GFP-tagged strains, 3 h
YJL144W = details: S. cerevisiae GFP-tagged strains, 3 h
YHL021C = details: S. cerevisiae GFP-tagged strains, 3 h
YGL036W = details: S. cerevisiae GFP-tagged strains, 3 h
YPR145W = details: S. cerevisiae GFP-tagged strains, 3 h
YPL150W = details: S. cerevisiae GFP-tagged strains, 3 h
YGR121C = details: S. cerevisiae GFP-tagged strains, 3 h
YLR287C-A = details: S. cerevisiae GFP-tagged strains, 3 h
YBR248C = details: S. cerevisiae GFP-tagged strains, 3 h
YMR120C = details: S. cerevisiae GFP-tagged strains, 3 h
YPL111W = details: S. cerevisiae GFP-tagged strains, 3 h
YER151C = details: S. cerevisiae GFP-tagged strains, 3 h
YCL064C = details: S. cerevisiae GFP-tagged strains, 3 h
YLR109W = details: S. cerevisiae GFP-tagged strains, 3 h
YLR185W = details: S. cerevisiae GFP-tagged strains, 3 h
YDL204W = details: S. cerevisiae GFP-tagged strains, 3 h
YDL130W = details: S. cerevisiae GFP-tagged strains, 3 h
YGL135W = details: S. cerevisiae GFP-tagged strains, 3 h
YPR132W = details: S. cerevisiae GFP-tagged strains, 3 h
YDL205C = details: S. cerevisiae GFP-tagged strains, 3 h
YAL061W = details: S. cerevisiae GFP-tagged strains, 3 h
YML034W = details: S. cerevisiae GFP-tagged strains, 3 h
YAL060W = details: S. cerevisiae GFP-tagged strains, 3 h
YOR136W = details: S. cerevisiae GFP-tagged strains, 3 h
YNL112W = details: S. cerevisiae GFP-tagged strains, 3 h
YGR088W = details: S. cerevisiae GFP-tagged strains, 3 h
YOR173W = details: S. cerevisiae GFP-tagged strains, 3 h
YDR453C = details: S. cerevisiae GFP-tagged strains, 3 h
YGR034W = details: S. cerevisiae GFP-tagged strains, 3 h
YLR367W = details: S. cerevisiae GFP-tagged strains, 3 h
YPR184W = details: S. cerevisiae GFP-tagged strains, 3 h
YMR105C = details: S. cerevisiae GFP-tagged strains, 3 h
YLL026W = details: S. cerevisiae GFP-tagged strains, 3 h
YJL056C = details: S. cerevisiae GFP-tagged strains, 3 h
YIL051C = details: S. cerevisiae GFP-tagged strains, 3 h
YNL214W = details: S. cerevisiae GFP-tagged strains, 3 h
YHR144C = details: S. cerevisiae GFP-tagged strains, 3 h
YMR251W-A = details: S. cerevisiae GFP-tagged strains, 3 h
YDR070C = details: S. cerevisiae GFP-tagged strains, 3 h
YDR382W = details: S. cerevisiae GFP-tagged strains, 3 h
YLR058C = details: S. cerevisiae GFP-tagged strains, 3 h
YKR093W = details: S. cerevisiae GFP-tagged strains, 3 h
YOR182C = details: S. cerevisiae GFP-tagged strains, 3 h
YFR053C = details: S. cerevisiae GFP-tagged strains, 3 h
YGR019W = details: S. cerevisiae GFP-tagged strains, 3 h
YBR072W = details: S. cerevisiae GFP-tagged strains, 3 h
YKR094C = details: S. cerevisiae GFP-tagged strains, 3 h
YDR399W = details: S. cerevisiae GFP-tagged strains, 3 h
YOR375C = details: S. cerevisiae GFP-tagged strains, 3 h
YER117W = details: S. cerevisiae GFP-tagged strains, 3 h
[1] = biological target: General amino acid permease AGP1 (Saccharomyces cerevisiae S288c) (UniProt P25376); details: S. cerevisiae GFP-tagged strains, 3 h, YCL025C
YEL060C = details: S. cerevisiae GFP-tagged strains, 3 h
YIL052C = details: S. cerevisiae GFP-tagged strains, 3 h
YBR208C = details: S. cerevisiae GFP-tagged strains, 3 h
YHR018C = details: S. cerevisiae GFP-tagged strains, 3 h
YLL039C = details: S. cerevisiae GFP-tagged strains, 3 h
YNR001C = details: S. cerevisiae GFP-tagged strains, 3 h
YHR141C = details: S. cerevisiae GFP-tagged strains, 3 h
YEL007W = details: S. cerevisiae GFP-tagged strains, 3 h
YPL220W = details: S. cerevisiae GFP-tagged strains, 3 h
YGL147C = details: S. cerevisiae GFP-tagged strains, 3 h
YEL071W = details: S. cerevisiae GFP-tagged strains, 3 h

Chain of General amino acid permease AGP1 (Saccharomyces cerevisiae S288c) (P25376 whole entry, looked up): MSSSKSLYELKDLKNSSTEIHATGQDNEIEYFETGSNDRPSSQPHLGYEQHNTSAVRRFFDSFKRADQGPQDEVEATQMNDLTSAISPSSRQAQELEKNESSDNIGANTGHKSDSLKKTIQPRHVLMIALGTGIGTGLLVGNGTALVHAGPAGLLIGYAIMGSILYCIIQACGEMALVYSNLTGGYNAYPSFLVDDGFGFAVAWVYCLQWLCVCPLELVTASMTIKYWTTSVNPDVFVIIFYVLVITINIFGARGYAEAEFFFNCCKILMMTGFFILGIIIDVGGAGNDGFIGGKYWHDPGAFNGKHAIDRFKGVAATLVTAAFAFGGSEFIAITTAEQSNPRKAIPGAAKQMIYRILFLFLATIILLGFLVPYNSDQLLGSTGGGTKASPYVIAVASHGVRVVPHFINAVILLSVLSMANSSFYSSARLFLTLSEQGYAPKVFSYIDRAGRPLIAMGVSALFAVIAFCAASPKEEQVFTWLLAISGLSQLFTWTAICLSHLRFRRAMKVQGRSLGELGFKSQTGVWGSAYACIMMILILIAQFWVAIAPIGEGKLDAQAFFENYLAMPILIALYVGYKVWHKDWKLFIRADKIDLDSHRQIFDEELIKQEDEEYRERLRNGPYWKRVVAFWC

For `CNc1nc(N)c([N+](=O)[O-])c(Nc2cccc(F)c2)n1`, the GFP ratio to DMSO (YNL142W) was 9.4, the GFP ratio to DMSO (YPL265W) was 1.93 and the GFP ratio to DMSO (YIL043C) was 1.04 (inactive). The GFP ratio to DMSO (YMR307W) was 0.845 (inactive), the GFP ratio to DMSO (YLR142W) was 0.857 (inactive) and the GFP ratio to DMSO (YER156C) was 1.08 (inactive). For the same compound, the GFP ratio to DMSO (YOR063W) was 0.919 (inactive), the GFP ratio to DMSO (YNL015W) was 1.62 and the GFP ratio to DMSO (YKL103C) was 2.2. For the same compound, the GFP ratio to DMSO (YML063W) was 0.897 (inactive), the GFP ratio to DMSO (YJR148W) was 3.13 and the GFP ratio to DMSO (YKL086W) was 1.17 (inactive). The GFP ratio to DMSO (YIL069C) was 0.764 (inactive), the GFP ratio to DMSO (YCR002C) was 0.939 (inactive) and the GFP ratio to DMSO (YPL131W) was 0.93 (inactive). The GFP ratio to DMSO (YHR087W) was 1.64, the GFP ratio to DMSO (YML004C) was 1.28 (inactive) and the GFP ratio to DMSO (YBR139W) was 1.12 (inactive). The GFP ratio to DMSO (YOR371C) was 0.944 (inactive), the GFP ratio to DMSO (YER081W) was 1.07 (inactive) and the GFP ratio to DMSO (YBL087C) was 0.567. For the same compound, the GFP ratio to DMSO (YOL052C-A) was 2.48, the GFP ratio to DMSO (YIL066C) was 1.04 (inactive) and the GFP ratio to DMSO (YFR031C-A) was 0.845 (inactive). For the same compound, the GFP ratio to DMSO (YKR039W) was 4.91, the GFP ratio to DMSO (YGL062W) was 2.1 and the GFP ratio to DMSO (YOR038C) was 1.15 (inactive). For the same compound, the GFP ratio to DMSO (YEL063C) was 1.23 (inactive), the GFP ratio to DMSO (YKL119C) was 0.959 (inactive) and the GFP ratio to DMSO (YCR005C) was 4.96. The GFP ratio to DMSO (YHR203C) was 0.857 (inactive), the GFP ratio to DMSO (YML026C) was 0.557 and the GFP ratio to DMSO (YLR237W) was 0.775 (inactive). The GFP ratio to DMSO (YNL068C) was 1.09 (inactive), the GFP ratio to DMSO (YML128C) was 1.68 and the GFP ratio to DMSO (YJL144W) was 1.39 (inactive). The GFP ratio to DMSO (YHL021C) was 1.99, the GFP ratio to DMSO (YGL036W) was 0.845 (inactive) and the GFP ratio to DMSO (YPR145W) was 1.98. The GFP ratio to DMSO (YPL150W) was 0.959 (inactive), the GFP ratio to DMSO (YGR121C) was 1.38 (inactive) and the GFP ratio to DMSO (YLR287C-A) was 0.753 (inactive). The GFP ratio to DMSO (YBR248C) was 1.03 (inactive), the GFP ratio to DMSO (YMR120C) was 0.686 (inactive) and the GFP ratio to DMSO (YPL111W) was 2.48. The GFP ratio to DMSO (YER151C) was 1.03 (inactive), the GFP ratio to DMSO (YCL064C) was 1.15 (inactive) and the GFP ratio to DMSO (YLR109W) was 1.39 (inactive). The GFP ratio to DMSO (YLR185W) was 0.893 (inactive), the GFP ratio to DMSO (YDL204W) was 1.33 (inactive) and the GFP ratio to DMSO (YDL130W) was 0.917 (inactive). For the same compound, the GFP ratio to DMSO (YGL135W) was 0.899 (inactive), the GFP ratio to DMSO (YPR132W) was 0.841 (inactive) and the GFP ratio to DMSO (YDL205C) was 0.958 (inactive). The GFP ratio to DMSO (YAL061W) was 1.57, the GFP ratio to DMSO (YML034W) was 0.944 (inactive) and the GFP ratio to DMSO (YAL060W) was 2.27. The GFP ratio to DMSO (YOR136W) was 1.43 (inactive), the GFP ratio to DMSO (YNL112W) was 0.894 (inactive) and the GFP ratio to DMSO (YGR088W) was 1.71. The GFP ratio to DMSO (YOR173W) was 1.45 (inactive), the GFP ratio to DMSO (YDR453C) was 1.5 (inactive) and the GFP ratio to DMSO (YGR034W) was 0.814 (inactive). The GFP ratio to DMSO (YLR367W) was 0.896 (inactive), the GFP ratio to DMSO (YPR184W) was 1.61 and the GFP ratio to DMSO (YMR105C) was 1.72. The GFP ratio to DMSO (YLL026W) was 1.75, the GFP ratio to DMSO (YJL056C) was 0.886 (inactive) and the GFP ratio to DMSO (YIL051C) was 1.3 (inactive). The GFP ratio to DMSO (YNL214W) was 0.945 (inactive), the GFP ratio to DMSO (YHR144C) was 0.778 (inactive) and the GFP ratio to DMSO (YMR251W-A) was 1.64. The GFP ratio to DMSO (YDR070C) was 2.45, the GFP ratio to DMSO (YDR382W) was 0.981 (inactive) and the GFP ratio to DMSO (YLR058C) was 1.02 (inactive). The GFP ratio to DMSO (YKR093W) was 4.31, the GFP ratio to DMSO (YOR182C) was 0.657 (inactive) and the GFP ratio to DMSO (YFR053C) was 1.46 (inactive). For the same compound, the GFP ratio to DMSO (YGR019W) was 1.42 (inactive), the GFP ratio to DMSO (YBR072W) was 1.53 and the GFP ratio to DMSO (YKR094C) was 0.898 (inactive). For the same compound, the GFP ratio to DMSO (YDR399W) was 0.957 (inactive), the GFP ratio to DMSO (YOR375C) was 1.83 and the GFP ratio to DMSO (YER117W) was 0.434. For the same compound, the GFP ratio to DMSO [1] was 1.69, the GFP ratio to DMSO (YEL060C) was 1.88 and the GFP ratio to DMSO (YIL052C) was 0.769 (inactive). For the same compound, the GFP ratio to DMSO (YBR208C) was 2.34, the GFP ratio to DMSO (YHR018C) was 1.14 (inactive) and the GFP ratio to DMSO (YLL039C) was 1.49 (inactive). The GFP ratio to DMSO (YNR001C) was 1.57, the GFP ratio to DMSO (YHR141C) was 0.925 (inactive) and the GFP ratio to DMSO (YEL007W) was 0.993 (inactive). The GFP ratio to DMSO (YPL220W) was 1.04 (inactive), the GFP ratio to DMSO (YGL147C) was 0.799 (inactive) and the GFP ratio to DMSO (YEL071W) was 2.83.

From PubChem BioAssay AID504473 (NMMLSC, 2011)
